# Tests used:
# [1] = system: 2G3, 5H8, and 8B8 antibodies; assay: Inhibition immunoassays with peptide analogs, results in words for several antibodies together; format: binding, mouse; settings: for inhibition of the reaction of antibodies 2G3, 5H8 and 8B8 with the antigen (in words): P. knowlesi CS protein as antigen
# Experimental: (§1) Competitive inhibition of the antigen-antibody reaction by the thus synthesized peptides was measured by the following radioimmunoassay. P.knowlesi sporozoite CS protein was used as the antigen. • a) Preparation of antigen: 3,000 purified P. knowlesi sporozoites (Vanderberg et al., Military Medicine 134:1183, 1969) in 50 µl of phosphate buffered saline (PBS) containing protease inhibitors, were delivered to the bottom of polystyrene (Falcon 3911 plate, B-D and Co., Oxnard, Calif.) microtiter plates, which were sealed with parafilm and frozen at -70°C for at least ten minutes. The plates were then allowed to defrost slowly at room temperature. This procedure was repeated six times. Then the plates were incubated at 4°C overnight, and at 56°C for five minutes. The P. knowlesi extract was then removed from the wells and these were washed three times with PBS containing 1% bovine serum albumin (BSA) and 0.1% NaN₃. The wells were then filled with PBS-BSA-NaN₃ and incubated for a few hours at room temperature. • b) Preparation of peptides and two-site radio immunoassay to determine the inhibitory activity of the analogs; • (1) All synthetic peptides were dissolved in PBS at a concentration of 10 mM and subsequently diluted serially in PBS-1% BSA/0.1%NaN₃. Twenty-five µl of serial dilutions of each peptide were added to the wells coated with antigen. Control wells received only the diluent. Then, 25 µl of the ¹²⁵I-labelled monoclonal antibody (about 5-10ng, 10⁵cpm) were added to the wells. The microtiter plates were incubated at 4°C for 18 hours, washed 5 times with PBS-BSA-NaN₃ and then the wells were counted for well-bound antibody.
# The series of shorter analogs and one peptide overlapping two epitopes (7-6) shown in Table VII was used to analyze the specificity of the 2G3, 5H8, and 8B8 antibodies using the inhibition immunoassays described in Examples 10 and 11. […] On a molar basis, their activities were similar, although in some instances the larger peptides appeared to be slightly better inhibitors. […]
# monoclonal antibody 2G3 = assay: Two-site immunoradiometric assay with monoclonal antibody 2G3 and synthetic peptides; format: binding, mouse
# Experimental: Wells of microtiter plates (Falcon 3911) were incubated overnight at 4°C with 50 µl of a 10 µg/ml solution in PBS of the monoclonal 2G3 anti-CS protein of P.knowlesi. The wells were washed with PBS and then incubated for 2 hours at room temperature, with PBS-Tween 20 (0.05% (w/v), and then for 3 additional hours with PBS-BSA (1% (w/v). The synthetic peptides were diluted serially in PBS-BSA-Tween 20, and 30 µl aliquots of the dilutions were delivered to the bottom of individual wells. The plates were incubated overnight in the refrigerator, washed with PBS-BSA-Tween 20, and incubated with 5.0 µl (10 ng) of ¹²⁵I-labeled monoclonal antibody 2G3 diluted in PBS-BSA-Tween 20 (about 100,000 cpm). Controls consisted of plates coated with a non-relevant monoclonal antibody of the same isotype as 2G3. Specific counts were found only in wells incubated with the 24-MER and they were proportional to the dose of peptide added to the well.
# [2] = system: monoclonal antibody (2G3); assay: Inhibition by 12-MER of the binding of P. knowlesi CS protein to monoclonal antibody 2G3 (two-site assay); set-up: species or system mouse
# Experimental: To distinguish between these possibilities, an assay was conducted to determine the ability of the 12-MER to inhibit the interaction between the CS proteins of P.knowlesi and the monoclonal antibody 2G3. The inhibition assay was performed as follows: Wells of microtiter plates were coated with the monoclonal antibody 2G3 washed with Tween-20, saturated with BSA as described supra. In one series of tubes, the 12-MER was serially diluted in PBS-BSA-Tween 20. In a second series of tubes, an extract of P.knowlesi sporozoites (prepared as described by Cochrane, et al, supra) was serially diluted in PBS-BSA-Tween 20. Aliquots of each dilution of sporozoites were mixed with equal volumes of all dilutions of 12-MER. 30 µl of these mixtures were then added to the bottom of the 2G3-coated wells. As positive and negative controls, 30 µl aliquots of sporozoite dilutions mixed with PBS-BSA-Tween 20 were added to other wells which had been precoated with 2G3 or with a non-relevant monoclonal antibody. After overnight incubation in the refrigerator, the wells were washed and 50 µl (10 ug) of ¹²⁵I-labeled 2G3 diluted in PBS-BSA-Tween 20 were added. Following an additional incubation at room temperature for 1 hour, the wells were washed and counted in a gamma counter. The results are shown in Table V. The 12-MER inhibited, in a dose-dependent fashion, the interaction of the P.knowlesi CS protein with 2G3.
# antibody 8E11 = assay: Inhibition by synthetic peptides of binding of radiolabelled monoclonal antibody to CS protein (radioimmunoassay); set-up: species or system mouse; settings: at a concentration of 10⁻²M
# Experimental: as §1, with “The wells were then filled with PBS-BSA-NaN₃ and incubated for a few hours at room temperature. • b) Preparation of peptides and two-site radio immunoassay to determine the inhibitory activity of the analogs; • (1) All synthetic peptides were dissolved in PBS at a concentration of 10 mM and subsequently diluted serially in PBS-1% BSA/0.1%NaN₃. Twenty-five µl of serial dilutions of each peptide were added to the wells coated with antigen. Control wells received only the diluent. Then, 25 µl of the ¹²⁵I-labelled monoclonal antibody (about 5-10ng, 10⁵cpm) were added to the wells.” left out, “antibody. […]” for “antibody.”
Substance,"activity in the inhibition assays of the foregoing Examples (in words) ([1]; assayed as in the foregoing Examples (antibodies 2G3, 5H8, 8B8, 8E11))","inhibition of the reaction of antibodies 2G3, 5H8 and 8B8 with the antigen (in words) [1]",Amount of radiolabeled 2G3 (cpm) bound in wells (monoclonal antibody 2G3; peptide 5. µg/ml incubated with the solid-phase antibody 2G3) [cpm],Amount of radiolabeled 2G3 (cpm) bound in wells (monoclonal antibody 2G3; peptide 50. µg/ml incubated with the solid-phase antibody 2G3) [cpm],Amount of radiolabeled 2G3 (cpm) bound in wells (monoclonal antibody 2G3; peptide 500. µg/ml incubated with the solid-phase antibody 2G3) [cpm],Amount of radiolabeled 2G3 (cpm) bound in wells (monoclonal antibody 2G3; peptide .5 µg/ml incubated with the solid-phase antibody 2G3) [cpm],"Amount of 2G3 bound (cpm) in the presence of the 12-MER inhibitor ([2]; 12-MER 0.08 mg/ml, P. knowlesi extract 10³ sporozoites/ml (no inhibitor: 156)) [cpm]","Amount of 2G3 bound (cpm) in the presence of the 12-MER inhibitor ([2]; 12-MER 0.08 mg/ml, P. knowlesi extract 10⁴ sporozoites/ml (no inhibitor: 1353)) [cpm]","Amount of 2G3 bound (cpm) in the presence of the 12-MER inhibitor ([2]; 12-MER 0.08 mg/ml, P. knowlesi extract 10⁵ sporozoites/ml (no inhibitor: 4390)) [cpm]","Amount of 2G3 bound (cpm) in the presence of the 12-MER inhibitor ([2]; 12-MER 0.08 mg/ml, P. knowlesi extract 10⁶ sporozoites/ml (no inhibitor: 5582)) [cpm]","Amount of 2G3 bound (cpm) in the presence of the 12-MER inhibitor ([2]; 12-MER 0.6 mg/ml, P. knowlesi extract 10³ sporozoites/ml (no inhibitor: 156)) [cpm]","Amount of 2G3 bound (cpm) in the presence of the 12-MER inhibitor ([2]; 12-MER 0.6 mg/ml, P. knowlesi extract 10⁴ sporozoites/ml (no inhibitor: 1353)) [cpm]","Amount of 2G3 bound (cpm) in the presence of the 12-MER inhibitor ([2]; 12-MER 0.6 mg/ml, P. knowlesi extract 10⁵ sporozoites/ml (no inhibitor: 4390)) [cpm]","Amount of 2G3 bound (cpm) in the presence of the 12-MER inhibitor ([2]; 12-MER 0.6 mg/ml, P. knowlesi extract 10⁶ sporozoites/ml (no inhibitor: 5582)) [cpm]","Amount of 2G3 bound (cpm) in the presence of the 12-MER inhibitor ([2]; 12-MER 5.0 mg/ml, P. knowlesi extract 10³ sporozoites/ml (no inhibitor: 156)) [cpm]","Amount of 2G3 bound (cpm) in the presence of the 12-MER inhibitor ([2]; 12-MER 5.0 mg/ml, P. knowlesi extract 10⁴ sporozoites/ml (no inhibitor: 1353)) [cpm]","Amount of 2G3 bound (cpm) in the presence of the 12-MER inhibitor ([2]; 12-MER 5.0 mg/ml, P. knowlesi extract 10⁵ sporozoites/ml (no inhibitor: 4390)) [cpm]","Amount of 2G3 bound (cpm) in the presence of the 12-MER inhibitor ([2]; 12-MER 5.0 mg/ml, P. knowlesi extract 10⁶ sporozoites/ml (no inhibitor: 5582)) [cpm]",inhibitory effect on binding of radiolabelled 8E11 to the CS protein (antibody 8E11)
Ala₇-Asn₈-Ala₉-Gly₁₀-Gln₁₁-Pro₁₂-Gln₁-Ala₂-Gln₃-Gly₄-Asp₅-Gly₆,inactive,–,–,–,–,–,–,–,–,–,–,–,–,–,–,–,–,–,–
Asp₅-Gly-Ala-Asn-Ala-Gly-Gln-Pro₁₂ [5 - 12],–,strongly inhibitory,–,–,–,–,–,–,–,–,–,–,–,–,–,–,–,–,–
H₂N-GlnAlaGlnGlyAspGlyAla-AsnAlaGlyGlnPro-COOH (H-QAQGDGANAGQP-OH) [Peptide 12-MER],–,strongly inhibitory,40,103,157,0,72,102,1221,3893,0,70,781,3018,37,3,361,1099,no appreciable inhibitory effect
